# Assay results published in patent publication US20030215462A1, “Use of UGT inhibitors to increase bioavailability” (priority 2001, published 2003).
# Values joined by “and” are separate entries in the source; they are usually repeats but may differ in a detail not shown here. Equal entries are not always repeated.
# Tests used:
# Format in all cases: biochemical
# [1] = system: T1, UGT enzymes of human liver microsomes; test: Inhibition of 7-HFC glucuronidation in human liver microsomes; conditions: for % of control metabolism (SD, n = 3), 7-HFC glucuronidation: 7-HFC 50 μM, human liver microsomes 100 μg/ml, 15 min
# T1 construct: percentage of control metabolism, 7-HFC glucuronidation; percentage of control metabolism, 7-HFC glucuronidation
# [2] = system: UGT enzymes of pooled human jejunum microsomes; test: Inhibition of estradiol (E2) glucuronidation in pooled human jejunum microsomes; conditions: jejunum HJ61; E2 50 μM; inhibitor 100 μM
# Excerpt: (§1) Compounds were eluted using a binary solvent gradient system where solvent A was dilute phosphoric acid (pH 3) and solvent B was 80:20 acetonitrile-methanol. […] Detection was at 280 nm.
# [3] = system: T1, UGT enzymes of human liver microsomes; test: Kinetic and Ki studies of inhibitors of 7-HFC glucuronidation in human liver microsomes; conditions: 7-HFC 20-500 μM
# [4] = system: T2, UGT enzymes of human liver microsomes; test: Inhibition of 2ME2 glucuronidation (MG1, MG2) in human liver microsomes; conditions: liver 062101, 2ME2 50 μM
# T2 construct: other: liver 062101
# Excerpt: as §1
# [5] = system: UGT enzymes of human liver microsomes; test: Inhibition of raloxifene glucuronidation (G1, G2) in human liver microsomes; conditions: for % of control metabolism (SD, n = 3), raloxifene glucuronide G1 / % of control metabolism (SD, n = 3), raloxifene glucuronide G2: human liver microsomes 250 μg/ml, 15 min
# Excerpt: Compounds were eluted using a binary solvent gradient system. […] Solvent B was methanol. […] Detection was at 280 nm.
# [6] = inhibitor 25 μM, raloxifene 50 μM
# [7] = inhibitor 50 μM, raloxifene 50 μM
# [8] = inhibitor 100 μM, raloxifene 50 μM
# [9] = inhibitor 500 μM, raloxifene 50 μM
# [10] = liver lot 032101, inhibitor 50 μM
# [11] = liver lot 062101, inhibitor 50 μM
# [12] = liver lot 083000, inhibitor 50 μM
# [13] = raloxifene 50 μM, inhibitor 25 μM
# [14] = raloxifene 50 μM, inhibitor 50 μM
# [15] = raloxifene 50 μM, inhibitor 100 μM
smiles,measurement,setting,value
"O=C(O)c1cc(-c2ccc(F)cc2F)ccc1O [Diflunisal, reference compound]","percentage of control metabolism, 7-HFC glucuronidation",[1]; inhibitor 100 μM,77 (2) %
same,"% of control metabolism (SD, n = 3), 7-HFC glucuronidation",[1]; inhibitor 100 μM,77 (2) %
same,"percentage of control metabolism, 7-HFC glucuronidation",[1]; inhibitor 200 μM,65 (3) %
same,"% of control metabolism (SD, n = 3), 7-HFC glucuronidation",[1]; inhibitor 200 μM,65 (3) %
same,"percentage of control metabolism, 7-HFC glucuronidation",[1]; inhibitor 500 μM,37 (1) % and 38 (0) %
same,"% of control metabolism (SD, n = 3), 7-HFC glucuronidation",[1]; inhibitor 500 μM,"37 (1), % and 38 (0) %"
same,"residual metabolism (% of control), E2-3-β-D-glucuronide",[2],"62 (3), obs %"
same,Vmax of 7-HFC glucuronidation (fit of the experiment with this inhibitor),[3],62 ± 4 nmol/min/mg
same,Km,[3]; read-out: Km of 7-HFC glucuronidation (fit of the experiment with this inhibitor),92 ± 9 µM
same,"residual metabolism (% of control), 2ME2 MG1",[4]; inhibitor 50 μM,63 (2) %
same,"residual metabolism (% of control), 2ME2 MG2",[4]; inhibitor 50 μM,90 (5) %
same,"residual metabolism (% of control), 2ME2 MG1",[4]; inhibitor 100 μM,49 (1) %
same,"residual metabolism (% of control), 2ME2 MG2",[4]; inhibitor 100 μM,91 (1) %
same,"% of control metabolism (SD, n = 3), raloxifene glucuronide G1",[5]; [6],63 (3) %
same,"% of control metabolism (SD, n = 3), raloxifene glucuronide G1",[5]; [7],43 (1) %
same,"% of control metabolism (SD, n = 3), raloxifene glucuronide G1",[5]; [8],30 (4) %
same,"% of control metabolism (SD, n = 3), raloxifene glucuronide G1",[5]; [9],6 (1) %
same,"% of control metabolism (SD, n = 3), raloxifene glucuronide G2",[5]; [6],66 (1) %
same,"% of control metabolism (SD, n = 3), raloxifene glucuronide G2",[5]; [7],45 (2) %
same,"% of control metabolism (SD, n = 3), raloxifene glucuronide G2",[5]; [8],34 (1) %
same,"% of control metabolism (SD, n = 3), raloxifene glucuronide G2",[5]; [9],7 (1) %
same,"% of control metabolism, raloxifene G1",[5]; [10],52 (1) %
same,"% of control metabolism, raloxifene G2",[5]; [10],54 (0) %
same,"% of control metabolism, raloxifene G1",[5]; [11],67 (2) %
same,"% of control metabolism, raloxifene G2",[5]; [11],57 (2) %
same,"% of control metabolism, raloxifene G1",[5]; [12],43 (1) %
same,"% of control metabolism, raloxifene G2",[5]; [12],45 (2) %
same,"% of control metabolism, raloxifene G1",[5]; [13],63 (3) %
same,"% of control metabolism, raloxifene G2",[5]; [13],66 (1) %
same,"% of control metabolism, raloxifene G1",[5]; [14],43 (1) %
same,"% of control metabolism, raloxifene G2",[5]; [14],45 (2) %
same,"% of control metabolism, raloxifene G1",[5]; [15],30 (4) %
same,"% of control metabolism, raloxifene G2",[5]; [15],34 (1) %
